Patent publication US20230109758A1 (priority 2018, published 2023)

Assays:
C. beijerinckii DSM 6423 = type: cell-based
[1] = system: C. beijerinckii DSM 6423 ΔcatB; type: cell-based

In the case of `CS(=O)(=O)c1ccc([C@@H](O)[C@@H](CO)NC(=O)C(Cl)Cl)cc1` [thiamphenicol], the “Growth on thiamphenicol-supplemented medium” value (C. beijerinckii DSM 6423) is reported as “able to grow” and the “Growth on thiamphenicol-supplemented medium” value [1] is reported as “only the initial C. beijerinckii DSM 6423 strain is able to grow”.
